For 4 compounds, IC50 results are on record in BindingDB's records for doi:10.1016/j.ejmech.2020.112422 (China Medical University, 2020).

Series [1] can be described thus: Inhibition of ABCB1 in FLp-In-293 cells assessed as potentiation of paclitaxel-induced cytotoxicity by measuring paclitaxel IC50 at 2.5 uM measured after 72 hrs by SRB assay (Rvb = 11.8 +/- 1.13 nM). On the technique in general: In SRB staining, fixed cells bind dye roughly in proportion to their protein.
A short description of series [2]: Inhibition of human full-length ABCB1 expressed in FLp-In-293 cells assessed as potentiation of paclitaxel-induced cytotoxicity by measuring paclitaxel IC50 at 2.5 uM measured after 72 hrs by SRB assay (Rvb = 797 +/- 73 nM).
Series [3] in a line: Inhibition of human full-length ABCB1 expressed in FLp-In-293 cells assessed as potentiation of vincristine-induced cytotoxicity by measuring vincristine IC50 at 2.5 uM measured after 72 hrs by SRB assay (Rvb = 823 +/- 16 nM).
Series [4] can be described thus: Inhibition of ABCB1 in FLp-In-293 cells assessed as potentiation of paclitaxel-induced cytotoxicity by measuring paclitaxel IC50 at 5 uM measured after 72 hrs by SRB assay (Rvb = 11.8 +/- 1.13 nM).
The nature of series [5]: Inhibition of human full-length ABCB1 expressed in FLp-In-293 cells assessed as potentiation of doxorubicin-induced cytotoxicity by measuring doxorubicin IC50 at 5 uM measured after 72 hrs by SRB assay (Rvb = 2264 +/- 196 nM).
Series [6] in a line: Inhibition of ABCB1 in human KB-VIN cells assessed as potentiation of vincristine-induced cytotoxicity by measuring vincristine IC50 at 2.5 uM measured after 72 hrs by SRB assay (Rvb = 2867 +/- 142 nM).
Series [7] can be described thus: Inhibition of ABCB1 in FLp-In-293 cells assessed as potentiation of doxorubicin-induced cytotoxicity by measuring doxorubicin IC50 at 2.5 uM measured after 72 hrs by SRB assay (Rvb = 80 +/- 10 nM).
Series [8] is described as follows: Inhibition of ABCB1 in human HeLa S3 cells assessed as potentiation of paclitaxel-induced cytotoxicity by measuring paclitaxel IC50 at 5 uM measured after 72 hrs by SRB assay (Rvb = 26.50 +/- 4.1 nM).
Series [9] is described as follows: Inhibition of human full-length ABCB1 expressed in FLp-In-293 cells assessed as potentiation of vincristine-induced cytotoxicity by measuring vincristine IC50 at 5 uM measured after 72 hrs by SRB assay (Rvb = 823 +/- 16 nM).
Series [10] in a line: Inhibition of human full-length ABCB1 expressed in FLp-In-293 cells assessed as potentiation of doxorubicin-induced cytotoxicity by measuring doxorubicin IC50 at 2.5 uM measured after 72 hrs by SRB assay (Rvb = 2264 +/- 196 nM).
A short description of series [11]: Inhibition of ABCB1 in FLp-In-293 cells assessed as potentiation of vincristine-induced cytotoxicity by measuring vincristine IC50 at 2.5 uM measured after 72 hrs by SRB assay (Rvb = 6 +/- 0.2 nM).
Series [12] in a line: Inhibition of ABCB1 in human HeLa S3 cells assessed as potentiation of doxorubicin-induced cytotoxicity by measuring doxorubicin IC50 at 2.5 uM measured after 72 hrs by SRB assay (Rvb = 242 +/- 5 nM).
The nature of series [13]: Inhibition of ABCB1 in human KB-VIN cells assessed as potentiation of paclitaxel-induced cytotoxicity by measuring paclitaxel IC50 at 5 uM measured after 72 hrs by SRB assay (Rvb = 1762 +/- 63 nM).
A short description of series [14]: Inhibition of ABCB1 in human KB-VIN cells assessed as potentiation of paclitaxel-induced cytotoxicity by measuring paclitaxel IC50 at 2.5 uM measured after 72 hrs by SRB assay (Rvb = 1762 +/- 63 nM).
Series [15] in a line: Inhibition of ABCB1 in FLp-In-293 cells assessed as potentiation of vincristine-induced cytotoxicity by measuring vincristine IC50 at 5 uM measured after 72 hrs by SRB assay (Rvb = 6 +/- 0.2 nM).
The nature of series [16]: Inhibition of ABCB1 in human HeLa S3 cells assessed as potentiation of doxorubicin-induced cytotoxicity by measuring doxorubicin IC50 at 5 uM measured after 72 hrs by SRB assay (Rvb = 242 +/- 5 nM).
Series [17] is described as follows: Inhibition of ABCB1 in human HeLa S3 cells assessed as potentiation of vincristine-induced cytotoxicity by measuring vincristine IC50 at 5 uM measured after 72 hrs by SRB assay (Rvb = 4.55 +/- 0.28 nM).
Series [18] is described as follows: Inhibition of ABCB1 in human KB-VIN cells assessed as potentiation of doxorubicin-induced cytotoxicity by measuring doxorubicin IC50 at 2.5 uM measured after 72 hrs by SRB assay (Rvb = 4736 +/- 59 nM).
A short description of series [19]: Inhibition of ABCB1 in human HeLa S3 cells assessed as potentiation of vincristine-induced cytotoxicity by measuring vincristine IC50 at 2.5 uM measured after 72 hrs by SRB assay (Rvb = 4.55 +/- 0.28 nM).
Series [20] is described as follows: Inhibition of ABCB1 in human HeLa S3 cells assessed as potentiation of paclitaxel-induced cytotoxicity by measuring paclitaxel IC50 at 2.5 uM measured after 72 hrs by SRB assay (Rvb = 26.50 +/- 4.1 nM).
Series [21] can be described thus: Inhibition of ABCB1 in FLp-In-293 cells assessed as potentiation of doxorubicin-induced cytotoxicity by measuring doxorubicin IC50 at 5 uM measured after 72 hrs by SRB assay (Rvb = 80 +/- 10 nM).
Series [22] is described as follows: Inhibition of ABCB1 in human KB-VIN cells assessed as potentiation of doxorubicin-induced cytotoxicity by measuring doxorubicin IC50 at 5 uM measured after 72 hrs by SRB assay (Rvb = 4736 +/- 59 nM).
Series [23] is described as follows: Inhibition of ABCB1 in human KB-VIN cells assessed as potentiation of vincristine-induced cytotoxicity by measuring vincristine IC50 at 5 uM measured after 72 hrs by SRB assay (Rvb = 2867 +/- 142 nM).
Series [24] can be described thus: Inhibition of human full-length ABCB1 expressed in FLp-In-293 cells assessed as potentiation of paclitaxel-induced cytotoxicity by measuring paclitaxel IC50 at 5 uM measured after 72 hrs by SRB assay (Rvb = 797 +/- 73 nM).

Turning to `COc1ccc(-c2cc(OC(C)=O)c3c(-c4cccs4)c(NC(=O)c4ccccc4C)oc3c2)cc1`, the IC50 (commonly the concentration at which inhibition is half-maximal) stood at 9.1 nM in series [1]; 109 nM in [2]; 84 nM in series [3]; 7.2 nM in series [4]; 478 nM in [5]; 36 nM in series [6]. Also, the IC50 in series [7] is 89 nM; in series [8], 8.9 nM; in series [9], 8.9 nM; in series [10] it was 525 nM; in [11] it was 0.88 nM; in series [12], 116 nM. The IC50 turned out to be 46 nM in [13]; 345 nM in series [14]; 0.83 nM in series [15]; 103 nM in series [16]; 3.7 nM in series [17]; 1550 nM in series [18]. Moreover, the IC50 in series [19] stood at 5.1 nM; in series [20] it was 11 nM; in [21], 82 nM; in [22] it was 397 nM; in series [23] it was 6.5 nM; in [24] it was 55 nM.

On to `COc1ccc(-c2cc(OC(C)=O)c3c(-c4cccs4)c(NC(=O)c4ccccc4Cl)oc3c2)cc1`, for which the 50% inhibitory concentration (IC50) was found to be 6.4 nM in series [1]; 602 nM in [2]; 114 nM in series [3]; 6.3 nM in series [4]; 502 nM in [5]; 37 nM in [6]. Besides, the half-maximal inhibitory concentration (IC50) is 77 nM in series [7]; 8.8 nM in series [8]; 9.2 nM in series [9]; 564 nM in series [10]; 0.88 nM in series [11]; 111 nM in series [12]. In addition, the IC50 in series [13] was determined as 21 nM; in series [14] it was 80 nM; in series [15], 0.82 nM; in series [16] it was 86 nM; in [17], 2.2 nM; in series [19], 3.9 nM. For the same compound, the IC50 in series [20] worked out at 9.6 nM; in series [21] it was 73 nM; in [22] it was 102 nM; in series [23], 7.6 nM; in series [24], 91 nM.

Consider `COc1ccc(-c2cc(OC(C)=O)c3c(-c4cccs4)c(NC(=O)c4cccc(F)c4)oc3c2)cc1`, for which the half-maximal inhibitory concentration (IC50) in series [1] is 6.6 nM; in [2] it was 621 nM; in series [3], 96 nM; in series [4] it was 5.3 nM; in [5], 504 nM; in series [6] it was 60 nM. Moreover, the IC50 came out at 81 nM in series [7]; 11 nM in [8]; 25 nM in [9]; 559 nM in [10]; 6.3 nM in series [11]; 93 nM in [12]. Besides, the IC50 was determined as 48 nM in series [13]; 116 nM in series [14]; 3.7 nM in series [15]; 87 nM in series [16]; 4.7 nM in [17]; 2210 nM in series [18]. Further, the IC50 in series [19] was 5.4 nM; in series [20], 12 nM; in series [21], 82 nM; in series [22], 1400 nM; in series [23] it was 12 nM; in series [24], 77 nM.

`COc1ccc(-c2cc(OC(C)=O)c3c(-c4cccs4)c(N(C(C)=O)C(C)=O)oc3c2)cc1`: the IC50 in [1] amounted to 11 nM; in [2] it was 647 nM; in series [3] it was 663 nM; in [4] it was 10 nM; in [5], 677 nM; in series [6] it was 501 nM. For the same compound, the IC50 was 87 nM in series [7]; 14 nM in series [8]; 582 nM in [9]; 874 nM in [10]; 4.5 nM in series [11]; 105 nM in series [12]. Also, the IC50 is 597 nM in series [13]; 652 nM in [14]; 4 nM in [15]; 102 nM in [16]; 5.2 nM in series [17]; 1740 nM in series [18]. The IC50 in series [19] worked out at 5.7 nM; in [20], 14 nM; in [21], 82 nM; in series [22] it was 1500 nM; in [23], 314 nM; in series [24], 645 nM.
